# Test results: publication PMC12748989 (Nature Communications, 2025)
# Experiments:
# [1] = test system: MDA-MB-231 cells
# [2] = test system: PBMC; conditions: 12.5 µM
SMILES,"Average (percentage cell inhibition), Dmastoparan MDA-MB231 12.5uM [1] [%]","Average (percentage cell inhibition), Mastoparan PBMC [2] [%]"
CC[C@H](C)[C@H](NC(=O)[C@H](CCCCN)NC(=O)[C@H](CCCCN)NC(=O)[C@H](C)NC(=O)[C@H](CC(C)C)NC(=O)[C@H](C)NC(=O)[C@H](C)NC(=O)[C@H](CC(C)C)NC(=O)[C@H](C)NC(=O)[C@H](CCCCN)NC(=O)[C@H](CC(C)C)NC(=O)[C@H](CC(N)=O)NC(=O)[C@@H](N)Cc1c[nH]cn1)C(=O)N[C@@H](CC(C)C)C(N)=O [H1],37.0221,0.9359
CC[C@H](C)[C@H](N)C(=O)N[C@@H](CC(N)=O)C(=O)N[C@@H](CC(C)C)C(=O)N[C@@H](CCCCN)C(=O)N[C@@H](C)C(=O)N[C@@H](CC(C)C)C(=O)N[C@@H](C)C(=O)N[C@@H](Cc1c[nH]cn1)C(=O)N[C@@H](CC(C)C)C(=O)N[C@@H](C)C(=O)N[C@@H](CCCCN)C(=O)N[C@@H](CCCCN)C(=O)N[C@H](C(=O)N[C@@H](CC(C)C)C(N)=O)[C@@H](C)CC [H8],53.8201,-4.293
CC[C@H](C)[C@H](N)C(=O)N[C@@H](CC(N)=O)C(=O)N[C@@H](CC(C)C)C(=O)N[C@@H](CCCCN)C(=O)N[C@@H](C)C(=O)N[C@@H](CC(C)C)C(=O)N[C@@H](C)C(=O)N[C@@H](C)C(=O)N[C@@H](CC(C)C)C(=O)N[C@@H](C)C(=O)N[C@@H](CCCCN)C(=O)N[C@@H](CCCNC(=N)N)C(=O)N[C@H](C(=O)N[C@@H](CC(C)C)C(N)=O)[C@@H](C)CC [R12],35.2659,-4.156
CC[C@H](C)[C@H](N)C(=O)N[C@@H](CC(N)=O)C(=O)N[C@@H](CC(C)C)C(=O)N[C@@H](CCCCN)C(=O)N[C@@H](C)C(=O)N[C@@H](CC(C)C)C(=O)N[C@@H](C)C(=O)N[C@@H](C)C(=O)N[C@@H](CC(C)C)C(=O)N[C@@H](C)C(=O)N[C@@H](CCCCN)C(=O)N[C@@H](CCCCN)C(=O)N[C@H](C(=O)N1CCC[C@H]1C(N)=O)[C@@H](C)CC [P14],0.693,-11.4473
CC[C@H](C)[C@H](N)C(=O)N[C@@H](CC(N)=O)C(=O)N[C@@H](CC(C)C)C(=O)N[C@@H](CCCCN)C(=O)N[C@@H](C)C(=O)N[C@@H](CC(C)C)C(=O)N[C@@H](C)C(=O)N[C@@H](C)C(=O)N[C@@H](CC(C)C)C(=O)N[C@@H](C)C(=O)N[C@@H](CCCCN)C(=O)N[C@@H](CC(N)=O)C(=O)N[C@H](C(=O)N[C@@H](CC(C)C)C(N)=O)[C@@H](C)CC [N12],52.6491,5.917
CC[C@H](C)[C@H](N)C(=O)N[C@@H](CO)C(=O)N[C@@H](CC(C)C)C(=O)N[C@@H](CCCCN)C(=O)N[C@@H](C)C(=O)N[C@@H](CC(C)C)C(=O)N[C@@H](C)C(=O)N[C@@H](C)C(=O)N[C@@H](CC(C)C)C(=O)N[C@@H](C)C(=O)N[C@@H](CCCCN)C(=O)N[C@@H](CCCCN)C(=O)N[C@H](C(=O)N[C@@H](CC(C)C)C(N)=O)[C@@H](C)CC [S2],39.9159,20.6714
CC[C@H](C)[C@H](N)C(=O)N[C@@H](CC(N)=O)C(=O)N[C@@H](CCCCN)C(=O)N[C@@H](CCCCN)C(=O)N[C@@H](C)C(=O)N[C@@H](CC(C)C)C(=O)N[C@@H](C)C(=O)N[C@@H](C)C(=O)N[C@@H](CC(C)C)C(=O)N[C@@H](C)C(=O)N[C@@H](CCCCN)C(=O)N[C@@H](CCCCN)C(=O)N[C@H](C(=O)N[C@@H](CC(C)C)C(N)=O)[C@@H](C)CC [K3],21.542,-9.841
CC[C@H](C)[C@H](N)C(=O)N[C@@H](CC(N)=O)C(=O)N[C@@H](CC(C)C)C(=O)N[C@@H](CCCCN)C(=O)N[C@@H](C)C(=O)N[C@@H](CC(C)C)C(=O)N[C@@H](C)C(=O)N[C@@H](C)C(=O)N[C@@H](CC(C)C)C(=O)N[C@@H](C)C(=O)N[C@H](C(=O)N[C@@H](CCCCN)C(=O)N[C@H](C(=O)N[C@@H](CC(C)C)C(N)=O)[C@@H](C)CC)[C@@H](C)CC [I11],36.5354,5.295
CC[C@H](C)[C@H](N)C(=O)N[C@@H](CC(N)=O)C(=O)N[C@@H](CC(C)C)C(=O)N[C@@H](CCCCN)C(=O)N[C@@H](C)C(=O)N[C@@H](CC(C)C)C(=O)N[C@@H](C)C(=O)N[C@@H](C)C(=O)N[C@@H](CC(C)C)C(=O)N[C@@H](C)C(=O)N[C@@H](CCCCN)C(=O)N[C@H](C(=O)N[C@H](C(=O)N[C@@H](CC(C)C)C(N)=O)[C@@H](C)CC)[C@@H](C)CC [I12],44.3343,20.8332
CC[C@H](C)[C@H](N)C(=O)N[C@@H](CCC(N)=O)C(=O)N[C@@H](CC(C)C)C(=O)N[C@@H](CCCCN)C(=O)N[C@@H](C)C(=O)N[C@@H](CC(C)C)C(=O)N[C@@H](C)C(=O)N[C@@H](C)C(=O)N[C@@H](CC(C)C)C(=O)N[C@@H](C)C(=O)N[C@@H](CCCCN)C(=O)N[C@@H](CCCCN)C(=O)N[C@H](C(=O)N[C@@H](CC(C)C)C(N)=O)[C@@H](C)CC [Q2],33.3572,13.2802
CC[C@H](C)[C@H](NC(=O)[C@H](CCCCN)NC(=O)[C@H](CCCCN)NC(=O)[C@H](C)NC(=O)[C@H](CC(C)C)NC(=O)[C@H](C)NC(=O)[C@H](C)NC(=O)[C@H](CC(C)C)NC(=O)[C@H](C)NC(=O)[C@H](CCCCN)NC(=O)[C@H](CC(C)C)NC(=O)[C@H](CC(N)=O)NC(=O)[C@@H](N)Cc1c[nH]c2ccccc12)C(=O)N[C@@H](CC(C)C)C(N)=O [W1],42.4034,19.8521
CC[C@H](C)[C@H](N)C(=O)N[C@@H](CCCCN)C(=O)N[C@@H](CC(C)C)C(=O)N[C@@H](CCCCN)C(=O)N[C@@H](C)C(=O)N[C@@H](CC(C)C)C(=O)N[C@@H](C)C(=O)N[C@@H](C)C(=O)N[C@@H](CC(C)C)C(=O)N[C@@H](C)C(=O)N[C@@H](CCCCN)C(=O)N[C@@H](CCCCN)C(=O)N[C@H](C(=O)N[C@@H](CC(C)C)C(N)=O)[C@@H](C)CC [K2],44.3131,14.3506
CC[C@H](C)[C@H](NC(=O)[C@H](CCCCN)NC(=O)[C@H](CCCCN)NC(=O)[C@H](C)NC(=O)[C@H](CC(C)C)NC(=O)[C@H](C)NC(=O)[C@H](C)NC(=O)[C@H](CC(C)C)NC(=O)[C@H](C)NC(=O)[C@H](CCCCN)NC(=O)[C@H](CC(C)C)NC(=O)[C@H](CC(N)=O)NC(=O)[C@@H](N)CO)C(=O)N[C@@H](CC(C)C)C(N)=O [S1],31.5771,-13.6432
CC[C@H](C)[C@H](N)C(=O)N[C@@H](CC(N)=O)C(=O)N[C@@H](CC(C)C)C(=O)N[C@@H](CCCCN)C(=O)N[C@@H](C)C(=O)N[C@@H](CC(C)C)C(=O)N[C@@H](C)C(=O)N[C@@H](C)C(=O)N[C@@H](CC(C)C)C(=O)N[C@@H](C)C(=O)N[C@@H](CCCCN)C(=O)N[C@@H](CCCCN)C(=O)NCC(=O)N[C@@H](CC(C)C)C(N)=O [G13],23.4491,6.832
CC[C@H](C)[C@H](N)C(=O)N[C@@H](CC(N)=O)C(=O)N[C@@H](Cc1c[nH]c2ccccc12)C(=O)N[C@@H](CCCCN)C(=O)N[C@@H](C)C(=O)N[C@@H](CC(C)C)C(=O)N[C@@H](C)C(=O)N[C@@H](C)C(=O)N[C@@H](CC(C)C)C(=O)N[C@@H](C)C(=O)N[C@@H](CCCCN)C(=O)N[C@@H](CCCCN)C(=O)N[C@H](C(=O)N[C@@H](CC(C)C)C(N)=O)[C@@H](C)CC [W3],65.1242,22.6054
CC[C@H](C)[C@H](N)C(=O)N[C@H](C(=O)N[C@@H](CC(C)C)C(=O)N[C@@H](CCCCN)C(=O)N[C@@H](C)C(=O)N[C@@H](CC(C)C)C(=O)N[C@@H](C)C(=O)N[C@@H](C)C(=O)N[C@@H](CC(C)C)C(=O)N[C@@H](C)C(=O)N[C@@H](CCCCN)C(=O)N[C@@H](CCCCN)C(=O)N[C@H](C(=O)N[C@@H](CC(C)C)C(N)=O)[C@@H](C)CC)[C@@H](C)O [T2],59.8803,20.7916
CC[C@H](C)[C@H](N)C(=O)N[C@@H](CC(N)=O)C(=O)N[C@@H](CC(C)C)C(=O)N[C@@H](CCCCN)C(=O)N[C@@H](C)C(=O)N[C@@H](CC(C)C)C(=O)N[C@H](C(=O)N[C@@H](C)C(=O)N[C@@H](CC(C)C)C(=O)N[C@@H](C)C(=O)N[C@@H](CCCCN)C(=O)N[C@@H](CCCCN)C(=O)N[C@H](C(=O)N[C@@H](CC(C)C)C(N)=O)[C@@H](C)CC)[C@@H](C)O [T7],29.9324,3.741
CC[C@H](C)[C@H](N)C(=O)N[C@@H](CC(N)=O)C(=O)N[C@@H](CC(C)C)C(=O)N[C@@H](CCCCN)C(=O)N[C@@H](C)C(=O)N[C@@H](CC(C)C)C(=O)N[C@@H](C)C(=O)N[C@@H](C)C(=O)N[C@@H](CC(C)C)C(=O)N[C@@H](C)C(=O)N[C@@H](CCCCN)C(=O)N[C@@H](CCCCN)C(=O)N[C@H](C(=O)N[C@@H](Cc1ccc(O)cc1)C(N)=O)[C@@H](C)CC [Y14],29.2623,-0.4376
CC[C@H](C)[C@H](N)C(=O)N[C@@H](CC(N)=O)C(=O)N[C@@H](CC(C)C)C(=O)N[C@@H](CCCCN)C(=O)N[C@@H](C)C(=O)N[C@@H](CC(C)C)C(=O)N[C@@H](C)C(=O)N[C@@H](C)C(=O)N[C@@H](CCCNC(=N)N)C(=O)N[C@@H](C)C(=O)N[C@@H](CCCCN)C(=O)N[C@@H](CCCCN)C(=O)N[C@H](C(=O)N[C@@H](CC(C)C)C(N)=O)[C@@H](C)CC [R9],12.7524,5.887
